Results reported in paper PMC11432330, “Novel Drug-like HsrA Inhibitors Exhibit Potent Narrow-Spectrum Antimicrobial Activities against Helicobacter pylori” (International Journal of Molecular Sciences, 2024).

Test system: H. pylori 26695
Assay: In vivo inhibition of HsrA: RNA-Seq transcriptomic analysis of exposed cells
Type: cell-based, Helicobacter pylori
Conditions: for log2 Fold Change: exposed to lethal concentrations vs control
Method: Bacterial growth from three blood agar plates of H. pylori ATCC 700392 (aka 26695) incubated for 48 h at 37 °C under microaerobic conditions was aseptically resuspended in BHI + FBS and adjusted to 10^7 CFU/mL. BHI broth cultures were incubated microaerobically at 37 °C for 24 h. […] At this time, bacterial growth was stopped by adding 1.5 mL ice-cold RNA stop solution (95% absolute ethanol, 5% acid-buffered phenol) and subsequently incubated on ice. Control samples were exposed to the same amount of DMSO instead of the inhibitor. Helicobacter cells from all samples were harvested by centrifugation (4000 rpm at 4 °C for 10 min), then the pellets were quickly frozen by immersion in liquid nitrogen and stored at −80 °C.
RNA-Seq analysis was performed by GENEWIZ (Azenta Life Sciences, Leipzig, Germany). Frozen cell pellets from two biological replicates of each treatment condition were properly submitted to GENEWIZ in dry ice. RNA-Seq libraries were prepared according to standard protocols via rRNA depletion, RNA fragmentation and random priming, reverse transcription, 5’-phosphorylation and dA-tailing of cDNAs, adaptor ligation, and PCR enrichment. Once the quality of each library was confirmed, they were sequenced on an Illumina NovaSeq 6000 (Illumina, San Diego, CA, USA) with 150-bp paired-ends. Raw sequence reads were filtered to remove possible adapter sequences and nucleotides with poor quality using Trimmomatic v.0.36 [105]. The trimmed reads were subsequently mapped to the H. pylori strain 26695 reference genome NC_000915.1 available on NCBI, by using the Bowtie2 aligner v.2.2.6 [106]. Unique gene hit counts were calculated by using featureCounts from the Subread package v.1.5.2. Only unique reads that fell within the gene regions were counted. Using DESeq2 [108], a comparison of the gene expression between the control and treated groups of samples was performed. The Wald test was used to generate p-values and log2 fold changes. Genes with an adjusted p-value < 0.05 and absolute log2 fold change >1 were considered as differentially expressed genes (DEGs) for each comparison. The RNA-Seq data generated in this study have been deposited in ArrayExpress with the accession number E-MTAB-14255.

With `NC(=NOC(=O)Nc1ccc(Cl)cc1)c1csc([N+](=O)[O-])c1` [Ligand V, N′-{[(4-chloroanilino)carbonyl]}oxy-5-nitrothiophene-3-carboximidamide] the “log2 Fold Change” value (gene HP1464) was -0.584, the “log2 Fold Change” value (gene HP1467) was 1.322 and the “log2 Fold Change HP1469” value (gene HP1469, lethal concentrations of V vs control) was 0.362. For the same compound, the “log2 Fold Change” value (gene HP1470) was 1.312, the “log2 Fold Change HP1473” value (gene HP1473, lethal concentrations of V vs control) was 0.275 and the “log2 Fold Change” value (gene HP1481) was -0.602. For the same compound, the “log2 Fold Change HP1492” value (gene HP1492, lethal concentrations of V vs control) was 0.282, the “log2 Fold Change HP1499” value (gene HP1499, lethal concentrations of V vs control) was 0.340 and the “log2 Fold Change HP1501” value (gene HP1501, lethal concentrations of V vs control) was 0.305. The “log2 Fold Change” value (gene HP1504) was 1.311, the “log2 Fold Change HP1505” value (gene HP1505, lethal concentrations of V vs control) was 0.278 and the “log2 Fold Change HP1512” value (gene HP1512, lethal concentrations of V vs control) was 0.234. For the same compound, the “log2 Fold Change” value (gene HP1513) was -0.489, the “log2 Fold Change HP1521” value (gene HP1521, lethal concentrations of V vs control) was 0.260 and the “log2 Fold Change” value (gene HP1537) was -0.495. For the same compound, the “log2 Fold Change HP1539” value (gene HP1539, lethal concentrations of V vs control) was 0.288, the “log2 Fold Change” value (gene HP1556) was -0.480 and the “log2 Fold Change HP1562” value (gene HP1562, lethal concentrations of V vs control) was 0.282. The “log2 Fold Change” value (gene HP1572) was -0.532, the “log2 Fold Change” value (gene HP1573) was -0.478 and the “log2 Fold Change” value (gene HPrrnA16S) was 2.639. The “log2 Fold Change” value (gene acpS) was -0.554, the “log2 Fold Change adk” value (gene adk, lethal concentrations of V vs control) was 0.370 and the “log2 Fold Change aroB” value (gene aroB, lethal concentrations of V vs control) was 0.331. The “log2 Fold Change ddl” value (gene ddl, lethal concentrations of V vs control) was 0.165, the “log2 Fold Change dnaA” value (gene dnaA, lethal concentrations of V vs control) was 0.315 and the “log2 Fold Change dnaG” value (gene dnaG, lethal concentrations of V vs control) was 0.180. The “log2 Fold Change dut” value (gene dut, lethal concentrations of V vs control) was 0.253, the “log2 Fold Change fbcH” value (gene fbcH, lethal concentrations of V vs control) was 0.402 and the “log2 Fold Change flgD” value (gene flgD, lethal concentrations of V vs control) was 0.479. The “log2 Fold Change flgH” value (gene flgH, lethal concentrations of V vs control) was 0.237, the “log2 Fold Change flhF” value (gene flhF, lethal concentrations of V vs control) was 0.252 and the “log2 Fold Change” value (gene fliQ) was -0.518. For the same compound, the “log2 Fold Change fliR” value (gene fliR, lethal concentrations of V vs control) was 0.363, the “log2 Fold Change folE” value (gene folE, lethal concentrations of V vs control) was 0.244 and the “log2 Fold Change fusA” value (gene fusA, lethal concentrations of V vs control) was 0.268. For the same compound, the “log2 Fold Change” value (gene gcp) was -0.507, the “log2 Fold Change glmM” value (gene glmM, lethal concentrations of V vs control) was 0.344 and the “log2 Fold Change” value (gene gltX) was -0.588. For the same compound, the “log2 Fold Change gmk” value (gene gmk, lethal concentrations of V vs control) was 0.172, the “log2 Fold Change groES” value (gene groES, lethal concentrations of V vs control) was 0.428 and the “log2 Fold Change guaA” value (gene guaA, lethal concentrations of V vs control) was 0.370. The “log2 Fold Change gyrB” value (gene gyrB, lethal concentrations of V vs control) was 0.200, the “log2 Fold Change” value (gene hemC) was -0.538 and the “log2 Fold Change hypA” value (gene hypA, lethal concentrations of V vs control) was 0.375. The “log2 Fold Change infB” value (gene infB, lethal concentrations of V vs control) was 0.319, the “log2 Fold Change ksgA” value (gene ksgA, lethal concentrations of V vs control) was 0.343 and the “log2 Fold Change” value (gene lpxB) was -0.543. The “log2 Fold Change lpxK” value (gene lpxK, lethal concentrations of V vs control) was 0.332, the “log2 Fold Change mnmA” value (gene mnmA, lethal concentrations of V vs control) was 0.256 and the “log2 Fold Change motB” value (gene motB, lethal concentrations of V vs control) was 0.465. The “log2 Fold Change mraY” value (gene mraY, lethal concentrations of V vs control) was 0.155, the “log2 Fold Change nusB” value (gene nusB, lethal concentrations of V vs control) was 0.152 and the “log2 Fold Change oorC” value (gene oorC, lethal concentrations of V vs control) was 0.231. The “log2 Fold Change” value (gene panC) was 1.338, the “log2 Fold Change” value (gene pheT) was -0.561 and the “log2 Fold Change porA” value (gene porA, lethal concentrations of V vs control) was 0.146. For the same compound, the “log2 Fold Change prfB” value (gene prfB, lethal concentrations of V vs control) was 0.329, the “log2 Fold Change pyrH” value (gene pyrH, lethal concentrations of V vs control) was 0.243 and the “log2 Fold Change recA” value (gene recA, lethal concentrations of V vs control) was 0.430. The “log2 Fold Change” value (gene rnc) was -0.477, the “log2 Fold Change” value (gene rplQ) was -0.590 and the “log2 Fold Change” value (gene rplW) was -0.487. The “log2 Fold Change” value (gene rplX) was -0.561, the “log2 Fold Change rpsB” value (gene rpsB, lethal concentrations of V vs control) was 0.177 and the “log2 Fold Change” value (gene rpsI) was -0.579. The “log2 Fold Change ruvA” value (gene ruvA, lethal concentrations of V vs control) was 0.457, the “log2 Fold Change ruvB” value (gene ruvB, lethal concentrations of V vs control) was 0.388 and the “log2 Fold Change secD” value (gene secD, lethal concentrations of V vs control) was 0.450. For the same compound, the “log2 Fold Change” value (gene tRNA-Arg-4) was -0.569, the “log2 Fold Change” value (gene tRNA-Gln-1) was 1.327 and the “log2 Fold Change tRNA-Ser-1” value (gene tRNA-Ser-1, lethal concentrations of V vs control) was 0.297. The “log2 Fold Change” value (gene tRNA-Ser-2) was 1.370, the “log2 Fold Change tRNA-Ser-3” value (gene tRNA-Ser-3, lethal concentrations of V vs control) was 0.425 and the “log2 Fold Change” value (gene tRNA-Trp-1) was -0.513. For the same compound, the “log2 Fold Change” value (gene tgt) was -0.523, the “log2 Fold Change trpD” value (gene trpD, lethal concentrations of V vs control) was 0.327 and the “log2 Fold Change tsf” value (gene tsf, lethal concentrations of V vs control) was 0.474. The “log2 Fold Change uvrA” value (gene uvrA, lethal concentrations of V vs control) was 0.417, the “log2 Fold Change” value (gene xseA) was -0.471 and the “log2 Fold Change yajC” value (gene yajC, lethal concentrations of V vs control) was 0.146.
